Counter-ions that a name gives are not always drawn. Where a SMILES comes first, the peptide text is derived from it. [ ]: non-standard residue; d: D form. Sar = CNCC(=O)O
Experiments:
[1] = tested on: CML-KLS+ cells; assay: Metabolomic analysis of CML-KLS+ cells treated in vitro with protein degradation inhibitors; type: cell-based, mouse; settings: 100 nM, 2 hrs in vitro, hypoxic (3% O2)
Protocol: (§1) To detect inhibition of dipeptide uptake in vivo, immature KLS^+ cells were isolated from tet-inducible CML-affected (Tal1-tTA^+TRE-BCR-ABL1^+) mice (n=4 mice in each of the three independent experiments), and normal healthy littermate (Tal1-tTA^+) mice (n=6 mice in each of the two independent experiments) that had received vehicle or cefadroxil (36 mgKg^−1day^−1) by oral gavage for 30 days. […] In all cases, isolated cell pellets were frozen at −80° C. immediately after obtaining. Metabolomic profiling was performed by Metabolon Inc. (Durham, N.C.) using ultrahigh-performance liquid chromatography/mass spectroscopy (UPLC/MS/MS) and gas chromatography/MS (GC/MS). Data were compiled using the Metabolon LIMS (Laboratory Information Management System). The UPLC/MS/MS portion of the platform was based on a Waters Acquity UPLC (Waters) and a Q-Exactive high-resolution/accurate mass spectrometer (Thermo Scientific) interfaced with a heated electrospray ionization (HESI-II) source and Orbitrap mass analyzer. GC/MS was performed by a Trace DSQ fast-scanning single-quadrupole mass spectrometer using electron impact ionization (Thermo-Finnigan).

[2] = tested on: Raptor-Ser863; assay: Duolink in situ PLA, Raptor-Ser863 phosphorylation in LT-CML cancer stem cells; type: cell-based, mouse; settings: 30 min; GlySar or cefadroxil 5 μM; rapamycin 100 nM
Protocol: (§2) To examine phosphorylation of Smad2, Smad3, p38MAPK, AMPK, and S6 ribosomal protein, and Foxo3a-Smad2 and Foxo3a-Smad3 interactions, Duolink® in situ PLA assay (Olink Bioscience) was used. LT-CML stem cells, ST-CML stem cells, CD48^+, MPP, and KLS^− CML cells that were freshly isolated from CML-affected mice, and LT-normal HSCs that were freshly isolated from healthy control littermates, were immediately fixed with 4% paraformaldehyde for 30 min.
(§3) For in vitro inhibitor experiments, LT-CML stem cells were incubated in 3% O2 at 37° C. for 30 min with vehicle (control; artificial gastric fluid solution (900 ml ddH2O containing 2.0 g of NaCl, 7 ml of conc. HCl and 3.2 g of pepsin)), 5 μM Ly364947 (TGF-β type I receptor kinase Alk5 inhibitor; Merck), 5 μM SB203580 (p38MAPK inhibitor; LC Laboratories), 5 μM GlySar (dipeptide transporter inhibitor; Sigma-Aldrich), 5 μM cefadroxil (dipeptide transporter inhibitor; Sigma-Aldrich), or 100 nM rapamycin (mTORC1 inhibitor; Cell Signaling Technologies). […]
(§4) The proximate binding of these antibodies was then detected using Duolink® in situ PLA system which employs a set of two secondary antibodies in which one is conjugated to a minus strand PLA probe and the other is conjugated to a plus strand PLA probe. […] The number of fluorescent foci per single cell was quantified using Duolink®Image Tool software (Olink Bioscience).

[3] = tested on: Smad3 Ser208; assay: Duolink in situ PLA, Smad3 Ser208 phosphorylation in LT-CML cancer stem cells; type: cell-based, mouse
Protocol: as §2
(§5) For in vitro inhibitor experiments, LT-CML stem cells were incubated in 3% O2 at 37° C. for 30 min with vehicle (control; artificial gastric fluid solution (900 ml ddH2O containing 2.0 g of NaCl, 7 ml of conc. HCl and 3.2 g of pepsin)), 5 μM Ly364947 (TGF-β type I receptor kinase Alk5 inhibitor; Merck), 5 μM SB203580 (p38MAPK inhibitor; LC Laboratories), 5 μM GlySar (dipeptide transporter inhibitor; Sigma-Aldrich), 5 μM cefadroxil (dipeptide transporter inhibitor; Sigma-Aldrich), or 100 nM rapamycin (mTORC1 inhibitor; Cell Signaling Technologies). Treated cells were fixed with 4% paraformaldehyde for 30 min, and treated with 0.25% Triton X-100 for 15 min, washed and blocked by incubation in 5% FBS in TBS for 1 hr.
(§6) The proximate binding of these antibodies was then detected using Duolink® in situ PLA system which employs a set of two secondary antibodies in which one is conjugated to a minus strand PLA probe and the other is conjugated to a plus strand PLA probe. Nuclei were stained with DNA marker DAPI (Sigma). Stained slides were mounted using Fluoromount Plus (Diagnostic Biosystems) and fluorescent images were acquired by confocal microscopy (FV10i, Olympus) and Photoshop software (Adobe). The number of fluorescent foci per single cell was quantified using Duolink®Image Tool software (Olink Bioscience).

[4] = tested on: Raptor-Ser792; assay: Raptor-Ser792 phosphorylation in LT-CML cancer stem cells; type: cell-based, mouse; settings: LT-CML cancer stem cells in vitro
[5] = tested on: S6 ribosomal protein; assay: Duolink in situ PLA, S6 ribosomal protein phosphorylation in LT-CML cancer stem cells; type: cell-based, mouse; settings: 30 min; GlySar or cefadroxil 5 μM; rapamycin 100 nM
Protocol: as §2, §3, §4

[6] = tested on: AMPK; assay: Duolink in situ PLA, AMPK phosphorylation in LT-CML cancer stem cells; type: cell-based, mouse; settings: LT-CML cancer stem cells in vitro
Protocol: as §2, §5, §6

[7] = tested on: CML-KLS+ cells; assay: Metabolomic analysis of dipeptides in KLS+ cells from treated CML-affected mice; type: in vivo, mouse; settings: IM 100 mg/kg/day for 30 days (1 month)
Protocol: as §1

[8] = tested on: SLC15A2 mRNA; settings: nine CML patients, 1 month after IM therapy; public database; cited from earlier work

SMILES | dipeptide accumulation [1] | individual amino-acid levels [1] | Raptor-Ser792 phosphorylation [4] | phosphorylation of AMPK [6] | other results
CO/C1=C\C(C)=C\[C@@H](C)[C@@H](O)[C@@H](C)C/C(C)=C/C=C/[C@H](OC)[C@@H]([C@@H](C)[C@@H](O)[C@H](C)[C@@]2(O)C[C@@H](O)[C@H](C)[C@@H](C(C)C)O2)OC1=O [Bafilomycin A1] | increased significantly | decreased |  |  | 
CC(C)C[C@H](NC(=O)[C@H](Cc1ccccc1)NC(=O)c1cnccn1)B(O)O [Bortezomib] | increased significantly | decreased |  |  | 
CN(CC(=O)O)C(=O)CN [GlySar, glycylsarcosine] (H-Gly-[Sar]-OH) |  |  | did not promote | increased | phosphorylation of Raptor-Ser863 [2]: decreased phosphorylation; Smad3 Ser208 phosphorylation ([3]; 30 min, GlySar or cefadroxil 5 μM, rapamycin 100 nM): blocked; phosphorylation of S6 [5]: decreased phosphorylation
Cc1ccc(NC(=O)c2ccc(CN3CCN(C)CC3)cc2)cc1Nc1nccc(-c2cccnc2)n1 [IM, imatinib mesylate] |  |  |  |  | dipeptide levels in CML-KLS+ cells [7]: tended to decrease; levels of phospho-Smad3-Ser208 ([3]; IM treatment of murine LT-CML stem cells in vitro): reduced; SLC15A2 mRNA levels in CML patients [8]: decreased to a level comparable to that in healthy individuals
CN(C)C(=N)N=C(N)N [Metformin] |  |  | increases | increases | 

Reference: patent US10322136B2, “Composition for inhibiting growth or proliferation of chronic myelogenous leukemia cancer stem cells, and screening method therefor” (HIROSHIMA UNIVERSITY, priority 2015, dated 2019)
